Assay results taken from patent publication US12582687B2, “Composition based on Crocus sativus and Cannabis sativa” (priority 2021, dated 2026).
Where two headings read alike, the source gives them in different places.

Key:
[1] = molecular target: acetylcholinesterase (AchE) (Homo sapiens, UniProt P22303); experiment: Acetylcholinesterase activity, in vitro colorimetric Ellman method; format: biochemical; conditions: AchE 0.22 U/ml, ATCl 1 mM, 20 min
Description: The aim of this assay is to compare acetylcholinesterase (AchE) activity in the presence of the composition according to the invention, with a safranal/cannabidiol (CBD) ratio of 0.03, with acetylcholinesterase activity in the presence of safranal or CBD alone.
AchE activity was monitored and measured in vitro by colorimetric reaction using the Ellman method. Acetylthiocholine (ATCl) is degraded to thiocholine and acetic acid by AChE. The thiocholine then reacts with the dithiobisnitrobenzoic ion (DTNB) and the resulting ion (TNB) gives a yellow coloration. In a 96-well plate, the following amounts were deposited in each well: 55 μl buffer (Tris-HCl 50 mM), 75 μl DTNB (5 mM), 25 μl AchE (0.22 U/ml), 25 μl test sample (buffer or safranal (1.2 μg/ml), or CBD (40 μg/ml), or safranal (1.2 μg/ml)+CBD (40 μg/ml).
At the last moment, 25 μL of ATCl (1 mM) was added to initiate the reaction. The absorbance was then monitored at 405 nM for 20 min. For each well, the absorbance values over time (Ax) are normalized relative to the first absorbance measurement (AT0) according to the following formula: Normalized absorbance (An)=Ax−AT0. The percentage of AchE inhibition was determined by comparing the slopes of the curves (in the linear part) against the control according to the following equation [Math 1]. […]

[2] = test system: anxiety symptoms in healthy adults under stress; conditions: CBD alone without THC, cited from earlier work

Sequence of acetylcholinesterase (AchE) (P22303 32-614, species assumed): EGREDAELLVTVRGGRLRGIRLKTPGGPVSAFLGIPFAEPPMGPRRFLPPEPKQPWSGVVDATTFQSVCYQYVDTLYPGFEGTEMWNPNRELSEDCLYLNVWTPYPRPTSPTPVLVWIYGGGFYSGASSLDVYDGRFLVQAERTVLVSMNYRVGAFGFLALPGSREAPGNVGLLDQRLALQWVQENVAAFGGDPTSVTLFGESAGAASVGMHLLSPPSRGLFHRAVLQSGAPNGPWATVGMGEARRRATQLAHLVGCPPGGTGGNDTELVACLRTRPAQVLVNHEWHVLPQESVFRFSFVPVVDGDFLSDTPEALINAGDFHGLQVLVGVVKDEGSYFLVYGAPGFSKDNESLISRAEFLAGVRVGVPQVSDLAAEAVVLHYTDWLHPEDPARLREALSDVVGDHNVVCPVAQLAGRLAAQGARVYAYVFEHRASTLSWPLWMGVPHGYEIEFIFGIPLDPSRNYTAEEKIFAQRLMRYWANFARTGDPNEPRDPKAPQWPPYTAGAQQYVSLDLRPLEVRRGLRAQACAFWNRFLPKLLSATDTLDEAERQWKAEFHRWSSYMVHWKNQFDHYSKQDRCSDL

Structure (SMILES) | AchE activity compared with the control ([1]; safranal 1.2 μg/ml test sample) | inhibition at 40 µg/mL ([1]; CBD 40 μg/ml test sample, read-out: decrease in AchE activity (percentage of AchE inhibition relative to control)) [%] | effect on anxiety symptoms ([2]; dose 300 mg) | effect on anxiety symptoms ([2]; higher dose 900 mg) | effect on anxiety symptoms ([2]; lower dose 100 mg)
CC1=C(C=O)C(C)(C)CC=C1 [safranal] | unchanged |  |  |  | 
C=C(C)[C@@H]1CCC(C)=C[C@H]1c1c(O)cc(CCCCC)cc1O [CBD, 2-[(1R,6R)-6-isopropenyl-3-methylcyclohex-2-en-1-yl]-5-pentylbenzene-1,3-diol] |  | 69.8 | reducing anxiety symptoms | no effect | no effect
